Values joined by “and” are separate entries in the source; they are usually repeats but may differ in a detail not shown here. Equal entries are not always repeated. Where two headings read alike, the source gives them in different places.
Columns and labels:
AChE of S. zeamais = experiment: AChE activity assay (modified Ellman) with S. zeamais protein extract; assay type: biochemical, Sitophilus zeamais; design: key to AChE Effect Inhibitor Type: C: competitive inhibitor; NC: non-competitive inhibitor; conditions: for AChE Effect Inhibitor Type: Lineweaver–Burk; for AChE Effect IC50 ± SD / Ki: S. zeamais protein extract; for Ki: read-out: AChE Effect ki ± SD (inhibitory constant)
Description: The compounds and mixtures evaluated in the in vitro assays were prepared in the same buffer supplemented with 0.5% (v/v) Triton X-100 (Sigma-Aldrich®, Saint Louis, MO, USA).
The supernatant was filtered, and 20 mM benzamidine was added. The extracts were stored in 5 mL aliquots at −20 °C. Preliminary assays were performed to quantify the specific activity of AChE (0.02–1.00 U/mL), GST (0.1–0.8 U/mL), and CAT (0.1–25 U/mL), and to optimize assay conditions (enzyme dilution: 1/8 to 1% v/v; substrate concentrations: 2 × km or within assay linearity).
Then, 50 µL of DTNB and 50 µL of ATChI were added. […] Inhibition percentages were calculated using Equation (5).

[1] = tested on: glutathione S-transferase (GST) activity in S. zeamais; experiment: GST activity assay (modified Habig) with S. zeamais protein extract; assay type: biochemical, Sitophilus zeamais; conditions: 120 mg/L
Description: Enzymatic assays were performed in the assay buffer, consisting of 0.1 M potassium phosphate buffer (pH 7.2). The compounds and mixtures evaluated in the in vitro assays were prepared in the same buffer supplemented with 0.5% (v/v) Triton X-100 (Sigma-Aldrich®, Saint Louis, MO, USA).
A modified version of the method described by Oviedo et al. was used. Adults of S. zeamais (8 g; ~3125 insects) were frozen in liquid nitrogen, homogenized in a 1:10 ratio with assay buffer, and centrifuged at 13,000× g for 60 min at 4 °C. The supernatant was filtered, and 20 mM benzamidine was added. The extracts were stored in 5 mL aliquots at −20 °C. Preliminary assays were performed to quantify the specific activity of AChE (0.02–1.00 U/mL), GST (0.1–0.8 U/mL), and CAT (0.1–25 U/mL), and to optimize assay conditions (enzyme dilution: 1/8 to 1% v/v; substrate concentrations: 2 × km or within assay linearity). Each experiment was performed independently three times, with three technical replicates per experiment.
A modified version of Habig’s method was used. The protein extract (50 µL; 0.59 U/mL) was incubated with 50 µL of the compound or mixture (120 mg/L), followed by 50 µL each of CDNB and reduced glutathione (GSH). Kinetic absorbance was measured at 340 nm for 8 min. Blanks (without substrate) and quercetin (positive control) were included. Inhibition (%) was calculated using Equation (5), and treatment differences were evaluated via parametric ANOVA (α = 0.05) in GraphPad Prism 8.0.2 [42, 43]. Each experiment was performed independently three times, with three technical replicates per experiment.(5) % Inhibition=1−Am−AB/AC ×100 where Am is the absorbance of the sample, AB is the absorbance of the blank, and AC is the absorbance of the negative control.

Sitophilus zeamais [2] = experiment: whole plant or invertebrate; conditions: for LC50 / EC90: Sitophilus zeamais; for EC90: read-out: Fumigant Toxicity LC90 (95% FL)
Description: (§1) The insects used in this study were Sitophilus zeamais Motschulsky (Coleoptera: Curculionidae), identified by the Instituto Colombiano Agropecuario (ICA) under report number R3823M0000425. […] The adult insects used in all the experiments were 6 to 10 days post-emergence.
The treated disks were affixed to the inner surface of the screw cap of 22 mL glass vials. […] All treatments were performed in two independent experiments, each with five replicates.
(§2) Mixtures predicted by the RSM were prepared based on mole fractions. […] Four replicates were performed for each treatment and control across two independent experimental runs.
Dose reduction indices (DRIs) were also calculated to estimate how much the dose of each compound in a synergistic combination could be reduced to achieve a 50% effect (Equation (4)). DRIs were interpreted as favorable when >1, neutral at 1, and unfavorable when <1. Values above the log DRI = 0 line indicate favorable dose reductions.(4) (IRD)i=CL50i(fax)i/(1−(fax)i)^1/mi/(D)i

Sitophilus zeamais [3] = assay type: in vivo; conditions: for Contact Toxicity LD50 (95% FL) / Contact Toxicity LD90 (95% FL): topical, 24 h after exposure; for Contact Toxicity LD50i (LC-95%): mixtures and their components (Table 3)
Description: as §1
Groups of 10 insects, previously placed in Petri dishes, were immobilized by exposure to low temperatures (0 °C). An initial dose of 50.0 µg per adult was applied topically to the dorsal thorax of each insect using aliquots of 0.20 µL from 0.25 mg/µL solutions in n-hexane. […] All treatments were performed in two independent experiments, each with four replicates. Insect mortality was assessed after 24 h, and mortality percentages were calculated using Abbott’s correction formula (Equation (1)).
as §2
Dose reduction indices (DRIs) were also calculated to estimate how much the dose of each compound in a synergistic combination could be reduced to achieve a 50% effect (Equation (4)). DRIs were interpreted as favorable when >1, neutral at 1, and unfavorable when <1.

[4] = 24 h, read-out: Fumigant Toxicity LC50i (LC-95%)
[5] = in Homo sapiens, 24 h, read-out: Fumigant Toxicity LC50 (95% FL)
[6] = read-out: LC50 values, fumigant activity (Figure 3)

| Compound | LC50 (Sitophilus zeamais [2]; [4]) [µg/mL] | LC50 (Sitophilus zeamais [2]; [5]) | EC90 (Sitophilus zeamais [2]; in Homo sapiens, 24 h) | Contact Toxicity LD50 (95% FL) (Sitophilus zeamais [3]) | Contact Toxicity LD90 (95% FL) (Sitophilus zeamais [3]) | further results |
| --- | --- | --- | --- | --- | --- | --- |
| C=C(C)C1CC=C(C)CC1 (racemic) [Compound C16, DL-Limonene (1:1)] | 88.7 | 88.7 µg/mL and 651 µM | 136 µg/mL and 999 µM |  |  | AChE inhibition type (Lineweaver–Burk plots), in words (AChE of S. zeamais): non-competitive inhibition; AChE Effect Inhibitor Type (AChE of S. zeamais): NC; AChE Effect IC50 ± SD (AChE of S. zeamais): 26.69 ± 2.90 µg/mL; Ki (AChE of S. zeamais): 79.64 ± 0.55 µM; GST Inhibition λ340 (%) [1]: 7.4% |
| CCCCCCCCCC(C)=O [Compound C36, 2-Undecanone] |  |  |  | 42.86 (40.60–45.30) µg/Adult | 57.13 (53.43–62.83) µg/Adult |  |
| C=CC(C)(O)CCC=C(C)C (centres unmarked) [Compound C28, Linalool] |  |  |  | 21.87 (19.09–24.23) µg/Adult | 36.23 (33.20–40.64) µg/Adult |  |
| Isoeugenol [Compound C31] |  |  |  | 29.1 (24.40–34.21) µg/Adult | 66.2 (57.28–80.01) µg/Adult |  |
| CCCCCCCCC(C)=O [Compound C35, 2-Decanone] |  |  |  | 38.04 (35.29–40.84) µg/Adult | 57.17 (52.97–63.12) µg/Adult | LC50 (Sitophilus zeamais [2]; [6]): > 150 µg/mL |
| CCCCCCCC(=O)CCC [Compound C34, 4-Undecanone] |  |  |  | 37.05 (34.09–40.01) µg/Adult | 53.95 (49.63–60.68) µg/Adult |  |
| C=C(C)[C@H]1CC=C(C)C(=O)C1 [Compound C3, S-(+)-Carvone] | 2.87 | 2.87 µg/mL and 19.1 µM | 5.31 µg/mL and 35.4 µM | 12.68 (10.91–14.60) µg/Adult | 23.236 (20.46–27.42) µg/Adult | Contact Toxicity LD50i (LC-95%) (Sitophilus zeamais [3]): 12.68 µg/Adult; AChE inhibition type (Lineweaver–Burk plots), in words (AChE of S. zeamais): competitive inhibition; AChE Effect Inhibitor Type (AChE of S. zeamais): C; AChE Effect IC50 ± SD (AChE of S. zeamais): 66.27 ± 4.35 µg/mL; Ki (AChE of S. zeamais): 56.76 ± 0.18 µM; GST Inhibition λ340 (%) [1]: 23.0%; LC50 (Sitophilus zeamais [2]; [6]): 2.87 µg/mL |
| CC1(C)C(C=C(Cl)Cl)C1C(=O)OC(C#N)c1cccc(Oc2ccccc2)c1 (centres unmarked) [Cypermethrin, reference compound] |  |  |  | 10.492 (0.00–29.96) µg/Adult | 35.79 (21.98–84.37) µg/Adult | Contact Toxicity LD50i (LC-95%) (Sitophilus zeamais [3]): 10.49 (0.10–19.96) µg/Adult; Contact Toxicity LD50i (LC-95%) (Sitophilus zeamais [3]; listed as cypermethrin): 10.49 µg/Adult |
| C=C(C)[C@@H]1CC[C@@H](C)CC1=O [Compound C23, 2S,5R-Isopulegone] | 2.37 | 2.37 µg/mL and 15.6 µM | 3.88 µg/mL and 25.5 µM |  | 18.48 (16.56–21.64) µg/Adult | Contact Toxicity LD50i (LC-95%) (Sitophilus zeamais [3]): 11.14 µg/Adult; GST Inhibition λ340 (%) [1]: 19.4% |
| CC1C(=O)CC2(C(C)C)CC12 (stereo not drawn) [Compound C6, α, β-Thujone (70:10)] |  | 4.34 µg/mL and 28.5 µM | 6.81 µg/mL and 44.7 µM | 32.04 (29.44–34.42) µg/Adult | 44.67 (41.56–49.34) µg/Adult |  |
| CC1=CC(=O)C(C(C)C)CC1 (centres unmarked) [Compound C22, Piperitone] |  | 4.38 µg/mL and 28.8 µM | 6.19 µg/mL and 40.7 µM |  | 14.70 (13.25–16.96) µg/Adult |  |
| COP(=O)(OC)OC=C(Cl)Cl [Dichlorvos, reference compound] | 2.17 | 2.17 µg/mL and 9.84 µM | 4.57 µg/mL and 20.7 µM |  |  | AChE Effect IC50 ± SD (AChE of S. zeamais): 0.0096 ± 0.00208 µg/mL; Fumigant Toxicity LC50i (LC-95%) (Sitophilus zeamais [2]; mixtures and their components (Table 3)): 2.17 (1.53–3.81) mg/L |
